Laboratory results from the NIST ThermoML archive (doi:10.1021/je0603574).
Where “and” joins values, the source holds several entries; their conditions need not be identical. Identical values can stand only once.

Assays:
[1] = 323.15 K; Liquid; Closed cell (Static) method
[2] = excess molar enthalpy (molar enthalpy of mixing); xn = mol fraction of the nth substance listed; settings: 323.15 K, Liquid, Flow calorimetry

CCCCO [butan-1-ol]
Settings | vapor or sublimation pressure [kPa]
[1] | 4.61

COC [dimethyl ether]
Settings | vapor or sublimation pressure
[1] | 1143 kPa and 1142.9 kPa and 1143.2 kPa

COC [dimethyl ether] + CCCCO
[2]
Settings | excess molar enthalpy [kcal/mol]
x1 = 0.0655 | 0.0435
x1 = 0.129 | 0.0805
x1 = 0.1904 | 0.114
x1 = 0.2499 | 0.141
x1 = 0.3076 | 0.161
x1 = 0.3635 | 0.179
x1 = 0.4178 | 0.191
x1 = 0.4705 | 0.199
x1 = 0.5216 | 0.203
x1 = 0.5713 | 0.204
x1 = 0.6196 | 0.199
x1 = 0.6666 | 0.192
x1 = 0.7122 | 0.182
x1 = 0.7567 | 0.167
x1 = 0.7999 | 0.15
x1 = 0.842 | 0.129
x1 = 0.8831 | 0.103
x1 = 0.923 | 0.0729
x1 = 0.962 | 0.0387

COC [dimethyl ether] + CCCO
[2]
Settings | excess molar enthalpy [kcal/mol]
x1 = 0.0541 | 0.0344
x1 = 0.1078 | 0.0655
x1 = 0.161 | 0.0937
x1 = 0.2138 | 0.118
x1 = 0.2661 | 0.139
x1 = 0.3179 | 0.158
x1 = 0.3693 | 0.173
x1 = 0.4203 | 0.184
x1 = 0.4708 | 0.192
x1 = 0.521 | 0.197
x1 = 0.5707 | 0.197
x1 = 0.62 | 0.195
x1 = 0.6688 | 0.189
x1 = 0.7173 | 0.178
x1 = 0.7654 | 0.164
x1 = 0.8131 | 0.144
x1 = 0.8604 | 0.119
x1 = 0.9073 | 0.0865
x1 = 0.9538 | 0.0466

COC [dimethyl ether] + CCO
[2]
Settings | excess molar enthalpy [kcal/mol]
x1 = 0.0428 | 0.0209
x1 = 0.0862 | 0.0423
x1 = 0.1303 | 0.0624
x1 = 0.175 | 0.0815
x1 = 0.2205 | 0.0994
x1 = 0.2667 | 0.116
x1 = 0.3137 | 0.131
x1 = 0.3614 | 0.145
x1 = 0.4098 | 0.156
x1 = 0.4591 | 0.166
x1 = 0.5092 | 0.171
x1 = 0.5601 | 0.175
x1 = 0.6118 | 0.177
x1 = 0.6645 | 0.173
x1 = 0.718 | 0.166
x1 = 0.7725 | 0.153
x1 = 0.8279 | 0.132
x1 = 0.8842 | 0.102
x1 = 0.9416 | 0.0583

COC [dimethyl ether] + CO
[2]
Settings | excess molar enthalpy [kcal/mol]
x1 = 0.03 | 0.00583
x1 = 0.0614 | 0.0128
x1 = 0.0941 | 0.0203
x1 = 0.1282 | 0.0289
x1 = 0.164 | 0.0375
x1 = 0.2014 | 0.0466
x1 = 0.2406 | 0.0564
x1 = 0.2818 | 0.0664
x1 = 0.325 | 0.0765
x1 = 0.3704 | 0.0863
x1 = 0.4183 | 0.0949
x1 = 0.4688 | 0.104
x1 = 0.5222 | 0.112
x1 = 0.5786 | 0.117
x1 = 0.6384 | 0.12
x1 = 0.7018 | 0.12
x1 = 0.7693 | 0.113
x1 = 0.8412 | 0.0951
x1 = 0.9179 | 0.0605

CCO [ethanol]
Settings | vapor or sublimation pressure [kPa]
[1] | 29.37

CO [methanol]
Settings | vapor or sublimation pressure [kPa]
[1] | 55.3

CCCO [propan-1-ol]
Settings | vapor or sublimation pressure [kPa]
[1] | 12.32
